The results in this text go back to patent publication US5248680A, “Zwitterionic compounds and their n-halo derivatives for use in the treatment of clinical conditions” (Bloomfield D.A., priority 1990, dated 1993).

One experiment deals with myeloperoxidase. Put plainly: Myeloperoxidase activity of neutrophils after preincubation with zwitterion. The experiment is classed as cell-based, human. The settings on record: 10 mM zwitterionic compound, normal neutrophils, mean ± S.E.M. From the text: Patients were selected with mild to moderate plaque-type psoriasis on the basis of clinical and histological evidence of disease. Normal volunteers were selected from laboratory personnel without personal or family history of inflammatory disease. Disease control groups included: a) patients with eczema, acne and dermatitis herpetiformis; and b) patients with Crohn's disease and ulcerative colitis.
Blood samples from each subject were drawn into sodium heparin Vacutainers® (Vacutainer is a Trade Mark). The inflammatory cells (neutrophils) were isolated by dextran sedimentation and FICOLL-PAQUE®(FICOLL-PLAQUE is a Trade Mark) gradient centrifugation. Viability and purity were assessed by fluorescence microscopy, using ethidium bromide and acridine orange staining.

For experiment [1], the system named is peripheral blood neutrophils. Put plainly: Chemiluminescence (reactive oxidant production) of peripheral blood neutrophils stimulated with calcium ionophore. It is filed as cell-based. Conditions: Homo sapiens, Neutrophil, 10 mM zwitterionic compound, normal neutrophils, mean ± S.E.M.; read-out: Chemiluminescence activity of normal neutrophils. The text has this: Patients were selected with mild to moderate plaque-type psoriasis on the basis of clinical and histological evidence of disease. Normal volunteers were selected from laboratory personnel without personal or family history of inflammatory disease. Disease control groups included: a) patients with eczema, acne and dermatitis herpetiformis; and b) patients with Crohn's disease and ulcerative colitis. Blood samples from each subject were drawn into sodium heparin Vacutainers® (Vacutainer is a Trade Mark). The inflammatory cells (neutrophils) were isolated by dextran sedimentation and FICOLL-PAQUE®(FICOLL-PLAQUE is a Trade Mark) gradient centrifugation. Viability and purity were assessed by fluorescence microscopy, using ethidium bromide and acridine orange staining. […] Chemiluminescence activity of the peripheral blood neutrophils was tested using the method of Bloomfield, F. J. and Young, M. M. (Inflammation, (1982) 6, 257, hereby incorporated by reference), using calcium ionophore (2μ Molar) as stimulant instead of opsonized zymosan. Chemiluminescence is a measure of the production of reactive oxidants by neutrophils in response to an inflammatory stimulus. It was observed that there was significant reduction in chemiluminescence activity by neutrophils in the taurine-treated and HEPES-treated cells compared to control cells in all groups.

A further experiment relates to leukotriene B4. Description: Degradation of standard leukotriene B4 measured by radioimmunoassay. The experiment is classed as biochemical. Conditions: data not shown. The text has this: It was therefore proposed to test the hypothesis that HEPES could inactivate leukotriene B4 by indirect stimulation of MPO leading to increased production of hypochlorous acid from cellular hydrogen peroxide.

SMILES strings stand for the structures.

For `NC(=O)CNCCS(=O)(=O)O` [ACES, N-(2-acetamido)-2-aminoethanesulphonic acid], the “Myeloperoxidase activity of normal neutrophils” value (“Myeloperoxidase activity” below) in the experiment with myeloperoxidase is “marked effect on MPO activity”; in the experiment on myeloperoxidase (listed as ACE, 10000 µM), 166 ± 18.2 percentage activity of control. Besides, the activity at 10000 µM in experiment [1] was 12.9 ± 2.75%.

In the case of `NC(=O)CN(CC(=O)O)CC(=O)O` [ADA, N-(2-acetamido)iminodiacetic acid], the “Myeloperoxidase activity” value in the experiment on myeloperoxidase is 214 ± 32.3 percentage activity of control. The activity at 10000 µM in experiment [1] was determined as 1.45 ± 0.27%.

Regarding `O=S(=O)(O)CCN1CCOCC1` [MES, 2(N-morpholino)ethanesulphonic acid], the “Myeloperoxidase activity” value with myeloperoxidase is reported as “marked effect on MPO activity”; in the experiment with myeloperoxidase (10000 µM), 264 ± 15.9 percentage activity of control. Besides, the activity at 10000 µM in experiment [1] came out at 3.15 ± 0.67%.

With `O=S(=O)(O)CCCN1CCN(CCO)CC1` [(H)EPPS, N-2-hydroxyethylpiperazine-N'3-propanesulphonic acid], the “Myeloperoxidase activity” value is “marked effect on MPO activity” in the experiment with myeloperoxidase and 348 ± 15.1 percentage activity of control in the experiment with myeloperoxidase (10000 µM). Further, the activity at 10000 µM in experiment [1] stood at 50.9 ± 7.38%.

With `O=S(=O)(O)CCN(CCO)CCO` [BES, N,N-bis(2-hydroxyethyl)-2-aminoethanesulphonic acid], the entries for the “Myeloperoxidase activity” value in the experiment with myeloperoxidase and with myeloperoxidase (10000 µM) were “lesser effect on MPO stimulation” and 138 ± 14.1 percentage activity of control, respectively. Moreover, the activity at 10000 µM in experiment [1] was determined as 4.95 ± 0.93%.

As to `O=S(=O)(O)CCNC1CCCCC1` [CHES, 2-(cyclohexylamino)ethanesulphonic acid], the “Myeloperoxidase activity” value in the experiment on myeloperoxidase was “little effect”; in the experiment on myeloperoxidase (10000 µM), 120 ± 4.8 percentage activity of control. Besides, in experiment [1], the activity at 10000 µM stood at 68.4 ± 6.36%.

Take `O=S(=O)(O)CCCN1CCOCC1` [MOPS, 3-(N-morpholino)propanesulphonic]: the “Myeloperoxidase activity” value is on record as “lesser effect on MPO stimulation” in the experiment on myeloperoxidase and 134 ± 13.4 percentage activity of control in the experiment on myeloperoxidase (10000 µM). Further, the activity at 10000 µM in experiment [1] amounted to 7.27 ± 1.53%.

On to `OCl` [hypochlorous acid, reference compound], for which the “degradation of standard leukotriene B4” value in the experiment with leukotriene B4 is given as “cause degradation of standard leukotriene B4”.

As for `O=S(=O)(O)CCNCl` [taurine chloramine], the “degradation of standard leukotriene B4” value with leukotriene B4 was “cause degradation of standard leukotriene B4”.

Take `O=S(=O)(O)CCN1CCN(CCS(=O)(=O)O)CC1` [PIPES, piperazine-N,N'bis(2-ethanesulphonic acid]: the “Myeloperoxidase activity” value in the experiment on myeloperoxidase is “marked effect on MPO activity”; in the experiment on myeloperoxidase (10000 µM), 199 ± 23.1 percentage activity of control. Moreover, in experiment [1], the activity at 10000 µM amounted to 4.08 ± 0.97%.

Regarding `O=S(=O)(O)CCNC(CO)(CO)CO` [TES, N-N[tris(hydroxymethyl)-methyl]-2-aminoethanesulphonic acid], the “Myeloperoxidase activity” value with myeloperoxidase is given as “lesser effect on MPO stimulation”; in the experiment with myeloperoxidase (10000 µM), 129 ± 20.1 percentage activity of control. For the same compound, in experiment [1], the activity at 10000 µM amounted to 15.6 ± 2.41%.

Consider `O=S(=O)(O)CCCNC1CCCCC1` [CAPS, 3-(cyclohexylamino)propanesulphonic acid], for which the “Myeloperoxidase activity” value in the experiment with myeloperoxidase is reported as “little effect”; in the experiment on myeloperoxidase (10000 µM), 115 ± 3.6 percentage activity of control. Also, in experiment [1], the activity at 10000 µM came to 87.9 ± 8.87%.
